Data from US12156850B2, “Preservative removal from eye drops containing hydrophilic drugs” (University of Florida Research Foundation, Inc., priority 2017, dated 2024).

What was measured:
[1] = Equilibrium interfacial tension calibration of BAK solutions, Langmuir adsorption isotherm fit; format: physicochemical; settings: Langmuir fit of b275
Experimental: The dynamic interfacial tension of filtered ophthalmic formulations was measured via pendant drop tensiometry using the commercially automated instrument named Kruss DSA 100 (Drop Shape Analyzer). A pendant drop is a drop of the filtered formulation was suspended at the tip of a 14-gauge needle with air as the surrounding phase. The silhouette of the axisymmetric formulation drop is imaged at regular time intervals and iteratively fit to Young-Laplace equation to measure its dynamic surface tension as a function of time. This robust method is commonly employed due to a high-speed and precise estimation of interfacial tension based on drop curvature and concentration of the formulation. […]
[formula] where Γeq is the equilibrium molar surface concentration, Γ∞ is the maximum molar surface concentration, C is the bulk concentration of the aqueous formulation, α and β are adsorption and desorption constants, R is the ideal gas constant, γO is the interfacial tension of the pure solvent (PBS), γ is the equilibrium interfacial tension recorded after 12 minutes of interfacial surface generation, and T is the operating temperature for acquisition of interfacial tension of drug/BAK formulation (recorded at room temperature, 298 K). […]

[2] = Experimental: The partition coefficients of hydrophilic drugs and BAK in p-HEMA, p-HEMA/t-butyl methacrylate, and p-HEMA/TRIS/t-butyl methacrylate particles were obtained by drug uptake studies. The mass of drug or BAK partitioned into p-HEMA hydrogel matrix was determined by monitoring the amount of drug or BAK lost in the concentrated aqueous drug/PBS or BAK/PBS loading solutions. The amount of drug loss from the concentrated aqueous phase was quantified by time-dependent absorbance measurements using UV-Vis spectrophotometry in a broad spectral range. […]
Time-dependent equilibrium interfacial tension measured via pendant drop tensiometry can be used to quantify the amount of BAK loss from the concentrated aqueous phase. […]
The partition coefficient of BAK in p-HEMA and p-HEMA/Tert-butyl methacrylate particle matrices were obtained by uptake studies. […] The mass of BAK partitioned in the p-HEMA and p-HEMA/TBM particle matrix was determined by monitoring the amount of BAK lost in the concentrated aqueous BAK/PBS loading solutions. The amount of BAK lost from the concentrated aqueous phase was quantified by time-dependent absorbance measurements using UV-Vis spectrophotometry (Genesys™ 10 UV, Thermo Spectronic, Rochester, NY, USA) over a wavelength range of 190-500 nm. […]

Benzalkonium chloride [BAK]
Γ∞ (maximum surface coverage) [1]: 0.003309 mol/m^2
β/α (ratio of kinetic rate constants) [1]: 462.14 m^3/mol

poly(hydroxyethyl methacrylate) [p-HEMA]
partition coefficient for BAK [2]: 100-500
